System: HBV (2.2.15 cells)
Experiment: Antiviral activity in 2.2.15 cells: reduction of viral product accumulation (qPCR of lysates, HBsAg or HBeAg ELISA)
Assay type: cell-based, hepatitis B virus (HBV)
Details: Hepatitis B virus, 120 h, day 5 post treatment, 50% reduction of viral product accumulation in lysates or supernatants vs no drug controls, readout (qPCR, HBsAg, HBeAg) not specified
Method: 2.2.15 cells are passaged upon attaining confluency in DMEM/F12 media in the presence of 10% FBS, Penn/Strep, and 250 ug/mL G418. Novel compounds are 5 fold serially diluted in DMSO and added to 96 well plates containing 35,000 cells/well at a 1:200 dilution so that the final concentration of DMSO is 0.5%. On day 5, post treatment cell lysates and supernatants are harvested for analysis.
Cells are lysed using Agilent Sidestep Lysis buffer, diluted 1:100 and quantified via quantitative real time PCR. Commercially available ELISA kits are used to quantitate the viral proteins HBsAg (Alpco) or HBeAg (US Biological) by following the manufacturer's recommended protocol after diluting samples to match the linear range of their respective assays. Irrespective of readout, compound concentrations that reduce viral product accumulation in the cell lysates or supernatants by 50% relative to no drug controls (EC50) are reported; EC50 ranges are as follows: A<0.1 μM; B 0.1-1 μM; C>1 μM.

Row | Structure (SMILES) | EC50
1 | COCCCOc1cc2c(cc1-c1nnc(C)o1)-c1cc(=O)c(C(=O)O)cn1[C@H](C(C)(C)C)C2 [Example 49, (S)-6-(tert-butyl)-9-(3-methoxypropoxy)-10-(5-methyl-1,3,4-oxadiazol-2-yl)-2-oxo-6,7-dihydro-2H-pyrido[2,1-a]isoquinoline-3-carboxylic Acid] | < 100 nM
2 | CC1(C)Cc2c3c(cc(-c4ccn[nH]4)c2O1)-c1cc(=O)c(C(=O)O)cn1[C@H](C(C)(C)C)C3 [Example 146, (S)-5-(tert-butyl)-2,2-dimethyl-9-oxo-12-(1H-pyrazol-5-yl)-2,3,4,9-tetrahydro-5H-furo[3,2-f]pyrido[2,1-a]isoquinoline-8-carboxylic Acid] | > 1000 nM
3 | CC(C)[C@@H]1Cc2c(cc(N3CCC3)c3c2CCO3)-c2cc(=O)c(C(=O)O)cn21 [Example 117, (S)-12-(azetidin-1-yl)-5-isopropyl-9-oxo-2,3,4,9-tetrahydro-5H-furo[3,2-f]pyrido[2,1-a]isoquinoline-8-carboxylic Acid] | < 100 nM
4 | CC(C)[C@@H]1Cc2c(cc(-c3ccccc3F)c3c2CCO3)-c2cc(=O)c(C(=O)O)cn21 [Example 108, (S)-12-(2-fluorophenyl)-5-isopropyl-9-oxo-2,3,4,9-tetrahydro-5H-furo[3,2-f]pyrido[2,1-a]isoquinoline-8-carboxylic Acid] | < 100 nM
5 | CC(C)[C@@H]1Cc2c(cc(-c3cccc(C(F)(F)F)c3)c3c2CCO3)-c2cc(=O)c(C(=O)O)cn21 [Example 95, (S)-5-isopropyl-9-oxo-12-(3-(trifluoromethyl)phenyl)-2,3,4,9-tetrahydro-5H-furo[3,2-f]pyrido[2,1-a]isoquinoline-8-carboxylic Acid] | > 1000 nM
6 | COCCCOc1cc2c(cc1-c1nnnn1C)-c1cc(=O)c(C(=O)O)cn1[C@H](C(C)(C)C)C2 [Example 35, (S)-6-(tert-butyl)-9-(3-methoxypropoxy)-10-(1-methyl-1H-tetrazol-5-yl)-2-oxo-6,7-dihydro-2H-pyrido[2,1-a]isoquinoline-3-carboxylic Acid] | < 100 nM
7 | COc1ccc(-c2cc3c(c4c2OCC4)C[C@@H](C(C)(C)C)n2cc(C(=O)O)c(=O)cc2-3)cc1 [Example 78, (S)-5-(tert-butyl)-12-(4-methoxyphenyl)-9-oxo-2,3,4,9-tetrahydro-5H-furo[3,2-f]pyrido[2,1-a]isoquinoline-8-carboxylic Acid] | < 100 nM
8 | CC(C)(C)[C@@H]1Cc2c(cc(N3CCOCC3)c3c2CCO3)-c2cc(=O)c(C(=O)O)cn21 [Example 118, (S)-5-(tert-butyl)-12-morpholino-9-oxo-2,3,4,9-tetrahydro-5H-furo[3,2-f]pyrido[2,1-a]isoquinoline-8-carboxylic Acid] | < 100 nM
9 | CC(C)(C)[C@@H]1Cc2c(cc(N3CCC3)c3c2CCO3)-c2cc(=O)c(C(=O)O)cn21 [Example 111, (S)-12-(azetidin-1-yl)-5-(tert-butyl)-9-oxo-2,3,4,9-tetrahydro-5H-furo[3,2-f]pyrido[2,1-a]isoquinoline-8-carboxylic Acid] | < 100 nM
10 | COCCCOc1cc2c(cc1-c1ccc3c(c1)OCCO3)-c1cc(=O)c(C(=O)O)cn1[C@H](C(C)(C)C)C2 [Example 31, (S)-6-(tert-butyl)-10-(2,3-dihydrobenzo[b][1,4]dioxin-6-yl)-9-(3-methoxypropoxy)-2-oxo-6,7-dihydro-2H-pyrido[2,1-a]isoquinoline-3-carboxylic Acid] | < 100 nM
11 | Cn1cc(-c2cc3c(c4c2OCC4)C[C@@H](C(C)(C)C)n2cc(C(=O)O)c(=O)cc2-3)cn1 [Example 69, (S)-5-(tert-butyl)-12-(1-methyl-1H-pyrazol-4-yl)-9-oxo-2,3,4,9-tetrahydro-5H-furo[3,2-f]pyrido[2,1-a]isoquinoline-8-carboxylic Acid] | < 100 nM
12 | CC(C)[C@@H]1Cc2c(cc(N3CCCC3)c3c2CCO3)-c2cc(=O)c(C(=O)O)cn21 [Example 110, (S)-5-isopropyl-9-oxo-12-(pyrrolidin-1-yl)-2,3,4,9-tetrahydro-5H-furo[3,2-f]pyrido[2,1-a]isoquinoline-8-carboxylic Acid] | < 100 nM
13 | CC(C)[C@@H]1Cc2c(cc(-c3ccoc3)c3c2CCO3)-c2cc(=O)c(C(=O)O)cn21 [Example 90, (S)-12-(furan-3-yl)-5-isopropyl-9-oxo-2,3,4,9-tetrahydro-5H-furo[3,2-f]pyrido[2,1-a]isoquinoline-8-carboxylic Acid] | < 100 nM
14 | CC(C)(C)[C@@H]1Cc2c(cc(-c3ccc(C(F)(F)F)cc3)c3c2CCO3)-c2cc(=O)c(C(=O)O)cn21 [Example 80, (S)-5-(tert-butyl)-9-oxo-12-(4-(trifluoromethyl)phenyl)-2,3,4,9-tetrahydro-5H-furo[3,2-f]pyrido[2,1-a]isoquinoline-8-carboxylic Acid] | > 1000 nM
15 | COCCCCc1cc2c(cc1-c1ccc(F)cc1)-c1cc(=O)c(C(=O)O)cn1[C@H](C(C)(C)C)C2 [Example 134, (S)-6-(tert-butyl)-10-(4-fluorophenyl)-9-(4-methoxybutyl)-2-oxo-6,7-dihydro-2H-pyrido[2,1-a]isoquinoline-3-carboxylic Acid] | < 100 nM
16 | CC(C)[C@@H]1Cc2c(cc(-c3ccc(C(F)(F)F)cc3)c3c2CCO3)-c2cc(=O)c(C(=O)O)cn21 [Example 94, (S)-5-isopropyl-9-oxo-12-(4-(trifluoromethyl)phenyl)-2,3,4,9-tetrahydro-5H-furo[3,2-f]pyrido[2,1-a]isoquinoline-8-carboxylic Acid] | > 1000 nM
17 | Cn1cc(-c2cc3c(c4c2OC(C)(C)C4)C[C@@H](C(C)(C)C)n2cc(C(=O)O)c(=O)cc2-3)cn1 [Example 151, (S)-5-(tert-butyl)-2,2-dimethyl-12-(1-methyl-1H-pyrazol-4-yl)-9-oxo-2,3,4,9-tetrahydro-5H-furo[3,2-f]pyrido[2,1-a]isoquinoline-8-carboxylic Acid] | > 1000 nM
18 | CC(C)[C@@H]1Cc2c(cc(-c3ccccc3)c3c2CCO3)-c2cc(=O)c(C(=O)O)cn21 [Example 93, (S)-5-isopropyl-9-oxo-12-phenyl-2,3,4,9-tetrahydro-5H-furo[3,2-f]pyrido[2,1-a]isoquinoline-8-carboxylic Acid] | < 100 nM
19 | CC(C)[C@@H]1Cc2c(cc(-c3ccnn3C)c3c2CCO3)-c2cc(=O)c(C(=O)O)cn21 [Example 96, (S)-5-isopropyl-12-(1-methyl-1H-pyrazol-5-yl)-9-oxo-2,3,4,9-tetrahydro-5H-furo[3,2-f]pyrido[2,1-a]isoquinoline-8-carboxylic Acid] | < 100 nM
20 | CC(C)(C)[C@@H]1Cc2c(cc(N3CC4(CCO4)C3)c3c2CCO3)-c2cc(=O)c(C(=O)O)cn21 [Example 120, (S)-5-(tert-butyl)-9-oxo-12-(1-oxa-6-azaspiro[3.3]heptan-6-yl)-2,3,4,9-tetrahydro-5H-furo[3,2-f]pyrido[2,1-a]isoquinoline-8-carboxylic Acid] | > 1000 nM
21 | COCCCOc1cc2c(cc1-n1cccn1)-c1cc(=O)c(C(=O)O)cn1[C@@H](C(C)(C)C)C2 [Example 51, (R)-6-(tert-butyl)-9-(3-methoxypropoxy)-2-oxo-10-(1H-pyrazol-1-yl)-6,7-dihydro-2H-pyrido[2,1-a]isoquinoline-3-carboxylic Acid] | < 100 nM
22 | COCCCOc1cc2c(cc1-c1ccc(Cl)cc1)-c1cc(=O)c(C(=O)O)cn1[C@H]1[C@@H]2COC1(C)C [Example 137, (3aS,12bR)-10-(4-chlorophenyl)-11-(3-methoxypropoxy)-3,3-dimethyl-7-oxo-3,3a,7,12b-tetrahydro-1H-furo[3,4-c]pyrido[2,1-a]isoquinoline-6-carboxylic Acid] | > 1000 nM
23 | CC(C)[C@@H]1Cc2c(cc(-c3ccc(Cl)cc3)c3c2CCO3)-c2cc(=O)c(C(=O)O)cn21 [Example 109, (S)-12-(4-chlorophenyl)-5-isopropyl-9-oxo-2,3,4,9-tetrahydro-5H-furo[3,2-f]pyrido[2,1-a]isoquinoline-8-carboxylic Acid] | > 1000 nM
24 | CC(C)(C)[C@@H]1Cc2c(cc(-c3ccco3)c3c2CCO3)-c2cc(=O)c(C(=O)O)cn21 [Example 72, (S)-5-(tert-butyl)-12-(furan-2-yl)-9-oxo-2,3,4,9-tetrahydro-5H-furo[3,2-f]pyrido[2,1-a]isoquinoline-8-carboxylic Acid] | < 100 nM
25 | COCCCOc1cc2c(cc1-c1ccccc1)-c1cc(=O)c(C(=O)O)cn1[C@H]1[C@@H]2COC1(C)C [Example 141] | < 100 nM
26 | CC(C)(C)[C@@H]1Cc2c(cc(-c3cccc(Cl)c3)c3c2CCO3)-c2cc(=O)c(C(=O)O)cn21 [Example 85, (S)-5-(tert-butyl)-12-(3-chlorophenyl)-9-oxo-2,3,4,9-tetrahydro-5H-furo[3,2-f]pyrido[2,1-a]isoquinoline-8-carboxylic Acid] | < 100 nM
27 | COCCCOc1cc2c(cc1-c1cnnn1C)-c1cc(=O)c(C(=O)O)cn1[C@H](C(C)(C)C)C2 [Example 48, (S)-6-(tert-butyl)-9-(3-methoxypropoxy)-10-(1-methyl-1H-1,2,3-triazol-5-yl)-2-oxo-6,7-dihydro-2H-pyrido[2,1-a]isoquinoline-3-carboxylic Acid] | < 100 nM
28 | COCCCOc1cc2c(cc1C1CCCCO1)-c1cc(=O)c(C(=O)O)cn1[C@H](C(C)(C)C)C2 (stereo partly drawn) [Example 41, (6S)-6-(tert-butyl)-9-(3-methoxypropoxy)-2-oxo-10-(tetrahydro-2H-pyran-2-yl)-6,7-dihydro-2H-pyrido[2,1-a]isoquinoline-3-carboxylic Acid] | < 100 nM
